Reference: patent US9964543B2, “Selection of medicaments that modulate the function and activity of interleukin 13” (GLYCAN BIOSCIENCES LLC, priority 2007, dated 2018)

Tests used:
[1] = tested on: IL-13 dependent proliferation of TF-1.8 cells; experiment: IL-13 dependent proliferation of TF-1.8 cells (luciferase); assay type: cell-based, human; details: 10 μg/ml, titration of IL-13 (FIG. 2A)
Text: Heparin inhibited the proliferation of a human IL-13 responsive cell line. This occurs at very low doses and is not due to a toxic effect of the heparin because other, similarly sulfated polysaccharides, at the same concentrations of IL-13 and polysaccharide have no effect. These experiments utilize the TF-1.8 cells. TF-1.8 cells are a subclone of the TF-1 cells that have been selected for growth in IL-4, and because IL-4 and IL-13 share a receptor these cells are also responsive to IL-13. TF-1 cells were originally established from a bone marrow sample from a person with severe pancytopenia. […]
TF-1.8 cells have been transfected with the firefly luciferase gene contained in the expression vector, pPGK-puromycin-luciferase (Coombe et al, J. Immunol. Methods 215:145-150, 1998). […] The cells are counted with a Coulter Z2 Particle Counter and Size Analyzer (Coulter Electronics, England) and routinely 2.5×10^4 cells are added to microplate wells that contain either no IL-13 (negative control) or various dilutions of IL-13. When the effect of PPS, or other sulfated polysaccharides is to be measured, the wells also contain various concentrations of these molecules. […]
PPS inhibited the proliferation of a human IL-13 responsive cell line. […] When the effect of PPS is to be measured, the wells also contain various concentrations of this molecule. […]

[2] = BIACORE binding of IL-13 proteins to immobilized heparin; details: surface plasmon resonance
Text: The optical phenomenon of surface plasmon resonance is used to monitor physical interactions between molecules. Passing a solution of a potential protein ligand (e.g. IL-13) over a sensor surface to which a target (e.g. heparin) is coupled monitors the real-time binding of protein ligands to the immobilized target. Detection is achieved by measuring refractive index changes very close to the sensor surface. When the refractive index is altered, the angle at which plasmon resonance occurs changes and this change directly correlates with the amount of protein interacting with the surface. A BIACORE 2000 sensor chip is conveniently used. It is very sensitive and its microfiuidics ensures that only small amounts of material are required.
Biotinylated heparin is immobilized on the biosensor chip. […] Solutions containing potential protein ligands of interest are injected over the sensor chip surface, and the binding is measured in real time (Femig, In: Proteoglycan protocols, Ed. R. V. Iozzo, Humana Press, Totowa, N.J., USA, 2001). Bacterially expressed recombinant human IL-13 (rhIL-13) readily binds to heparin immobilized by this method. […]
Site directed mutagenesis was performed on IL-13. […] Mutant IL-13 proteins were examined for their ability to bind heparin immobilized on a biosensor chip and binding was assessed using a BIACORE 2000 sensor chip.

IL-13Rα1 = molecular target: T1, IL-13Rα1 (Homo sapiens, UniProt P78552); details: low-moderate affinity; read-out: affinity of IL-13Rα1 by itself for IL-13; cited from earlier work
T1 sequence (P78552 22-427): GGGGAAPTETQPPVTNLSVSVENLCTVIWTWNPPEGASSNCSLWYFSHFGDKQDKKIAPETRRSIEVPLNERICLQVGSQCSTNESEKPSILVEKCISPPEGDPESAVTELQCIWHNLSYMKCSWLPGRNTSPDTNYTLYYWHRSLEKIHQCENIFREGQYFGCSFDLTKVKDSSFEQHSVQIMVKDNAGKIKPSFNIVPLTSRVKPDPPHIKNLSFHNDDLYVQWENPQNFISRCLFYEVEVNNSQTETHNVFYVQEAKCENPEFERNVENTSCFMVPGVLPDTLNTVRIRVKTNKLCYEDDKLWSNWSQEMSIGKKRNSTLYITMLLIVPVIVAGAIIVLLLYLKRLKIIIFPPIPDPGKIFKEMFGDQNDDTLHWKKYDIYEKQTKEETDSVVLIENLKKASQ

IL-13 Rα2 = molecular target: T2, IL-13 Rα2 (Homo sapiens, UniProt Q14627); details: high affinity; cited from earlier work
T2 sequence (Q14627 27-380): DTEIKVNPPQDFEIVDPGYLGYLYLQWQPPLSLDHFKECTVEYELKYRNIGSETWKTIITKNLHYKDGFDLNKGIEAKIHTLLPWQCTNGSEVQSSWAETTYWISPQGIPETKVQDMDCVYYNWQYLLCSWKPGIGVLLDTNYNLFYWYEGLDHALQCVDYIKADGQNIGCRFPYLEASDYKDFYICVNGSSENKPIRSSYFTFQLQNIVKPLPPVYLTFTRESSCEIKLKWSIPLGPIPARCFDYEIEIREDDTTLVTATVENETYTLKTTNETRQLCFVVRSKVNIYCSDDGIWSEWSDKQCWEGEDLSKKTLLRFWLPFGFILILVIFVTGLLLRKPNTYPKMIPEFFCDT

TF-1 cells = experiment: TF-1 cell proliferation induced by IL-13 proteins; assay type: cell-based, human
Description: The ability of sulfated xylans to inhibit IL-13 mediated cell proliferation is size dependent. These experiments utilized the TF-1 cell line from which the TF1.8 cells were derived. The assay is performed as described above with the TF1.8 cells the differences being the concentration of IL-13 required for cell growth and the fact that cell number is determined using a dye. Briefly, proliferation assays are carried out in 96-well microplates suitable for such assays. Cells are washed to remove any cytokine in the growth medium and then resuspended in RPMI/5% w/v FCS and routinely 2.5×10^4 cells are added to microplate wells that contain either no IL-13 (negative control) or various dilutions of IL-13. When the effect of the different sized sulfated xylans was measured, the wells also contained various concentrations of these molecules and the IL-13 concentration was held constant at 2.5 ng/ml. The cells proliferated for 48 hours, after which the number of cells present was quantified by staining with […] of the AQUEOUS ONE dye for 3 hours and then absorbance was read at 490 nm.
The IL-13R111 wild type and the IL-13Q111 variant are shown for comparison.
Details of the assay are given in Example 6.

binding to heparin immobilized on BIACORE sensor chip ([2]; listed as rhIL-13) | binding to heparin immobilized on BIACORE sensor chip ([2]; listed as wild type IL-13) | Compound | inhibition of IL-13 mediated cell proliferation [1] | Kd (IL-13Rα1) | Kd (IL-13 Rα2) | Concentration of IL-13 required for 50% TF-1 cell proliferation ED50 ave (TF-1 cells) | cell proliferative activity in the TF-1 cell assay (TF-1 cells; FIG. 7A)
– | – | O=S(=O)(O)OC[C@H]1O[C@@](COS(=O)(=O)O)(O[C@H]2O[C@H](COS(=O)(=O)O)[C@@H](OS(=O)(=O)O)[C@H](OS(=O)(=O)O)[C@H]2OS(=O)(=O)O)[C@@H](OS(=O)(=O)O)[C@@H]1OS(=O)(=O)O [sucrose octasulfate] | very little inhibitory activity | – | – | – | –
readily binds | binds heparin more strongly | IL-13 WT (R111): wild type human IL-13 with arginine in the 111 position; 1IJZ.pdb monomer in docking | – | 2 to 10 nM | 0.5 to 1.2 nM | 1.2 ng/mL | comparable
